Series [1] is described as follows: Absorption maximum of the dye. In kind it is physicochemical. To be noted: for absorption maximum in methanol: in methanol solution. How it is done: The following table sets forth the absorption maximum in nanometers for several dyes suitable for use in this invention.
To the activated 3-ethyl-2-methylbenzothiazolium derivative obtained above (4.5 mg) was added the 7-chloro-1-methyllepidinium salt obtained above (3.8 mg) in chloroform (250 μL) to form a mixture. Then triethylamine (50 μL) was added to the mixture. The resulting mixture was stirred at reflux for 30 minutes, during which time a dark blue solution was obtained. Diethyl ether was added to the solution and the resultant suspension was centrifuged. The supernatant was discarded and the precipitate resuspended in diethyl ether and centrifuged (2 times). The dark powder absorbed maximally at 638 nm in methanol solution.

Series [2] is described as follows: Fluorescence of dye only in CD4000 Retic Buffer, flow cytometer with helium-neon laser. The series is classed as physicochemical. The protocol:
(§1) Fluorescence was determined by dissolving the dye in a buffer (“CD4000 Retic Buffer”) at neutral pH and at a final concentration of 0.5 μg/ml of test solution. The “CD4000 Retic Buffer” contained the following ingredients in the amounts indicated: The tests were run in a flow cytometer with a helium-neon laser light source. The helium-neon laser provided light at a wavelength of 630 nm. The optical system was a conventional optical system.
Background: Flow cytometry measures light scatter and fluorescence of single cells or particles in a stream.

Series [3] concerns RNA. Description: Fluorescence of dye with RNA in CD4000 Retic Buffer, flow cytometer with helium-neon laser. How it is done:
as §1

The test system of series [4] is DNA. Briefly: Fluorescence of dye with DNA in CD4000 Retic Buffer, flow cytometer with helium-neon laser. How it is done:
as §1

[5] abbreviates: fluorescence relative to dye only intensity 1.0.

The results in this text go back to US7083982B2, “Helium-neon excitable reticulocyte dyes derivable from halolepidines” (Abbott Laboratories, priority 1996, dated 2006).

SMILES strings stand for the structures.

In the case of `CN1C=C/C(=C\C=C\c2sc3ccccc3[n+]2C)c2ccc(F)cc21` [Dye 2], the “Absorption maximum (nm)” value in series [1] is reported as 628 nm.
Take `CN1C=C/C(=C\C=C\c2sc3ccccc3[n+]2C)c2ccc(Cl)cc21` [Dye 8]: the “absorption maximum in methanol” value in series [1] came to 638 nm.
`CN1C=C/C(=C\C=C\C2=[N+](C)c3ccc4ccccc4c3C2(C)C)c2ccc(Cl)cc21` [Dye 6]: the “absorption maximum in methanol” value in series [1] came out at 623 nm.
On to `CN1C=C/C(=C\C=C\c2oc3ccc4ccccc4c3[n+]2C)c2ccc(Cl)cc21` [Dye 9], for which, in series [1], the “Absorption maximum (nm)” value turned out to be 624 nm and the “absorption maximum in methanol” value was 624 nm.
As for `CN1C=C/C(=C\C=C\c2sc3ccccc3[n+]2C)c2ccc(Br)cc21` [Dye 5], the “Absorption maximum (nm)” value in series [1] is on record as 638 nm.
`CC[n+]1c(/C=C/C=C2\C=CN(C)c3cc(Cl)ccc32)sc2ccccc21` [Dye 7]: in series [2] (0.5 μg/ml, neutral pH, 630 nm laser), the “Emission wavelength - dye only (nm)” value is 655.6 nm. In addition, in series [2] (emission), the Bandwidth stood at 45. Also, in series [1], the “Absorption maximum (nm)” value worked out at 638 nm and the “absorption maximum in methanol” value came to 638 nm. In series [3] (emission, with RNA), the “Bandwidth with RNA” value was determined as 36. Also, the “Enhancement with RNA” value in series [3] (setting [5]) came out at 39.1. Also, the “Emission wavelength with RNA (nm)” value in series [3] (with RNA, 0.5 μg/ml, neutral pH, 630 nm laser) is 671.2 nm. In addition, the “Bandwidth with DNA” value in series [4] (emission, with DNA) was 35. Besides, the “Enhancement with DNA” value in series [4] (setting [5]) turned out to be 50.4. In addition, the “Emission wavelength with DNA (nm)” value in series [4] (with DNA, 0.5 μg/ml, neutral pH, 630 nm laser) amounted to 661.8 nm.
